Results on five compounds are retold here after patent US12491217B2, “Compositions and methods for promoting healthy neural development in an unborn baby” (The Regents of the University of California, priority 2019, dated 2025).

This assay relates to thalamic explants from E14.5 embryos of ABX-treated dams. Put plainly: Axon outgrowth assay with individual metabolite supplementation. It is filed as cell-based, C57Bl/6J mice. As to conditions: for Length of ABX thalamic axons proximal to hypothalamus / Number of ABX thalamic axons proximal to hypothalamus: ABX thalamic + ABX hypothalamic explant; for Length of ABX thalamic axons proximal to hypothalamus / Number of ABX thalamic axons proximal to hypothalamus / Length of axons proximal to striatal explant: 1 nM, 100 nM, 10 uM; for Length of axons proximal to striatal explant / Number of axons per 200 μm of thalamic perimeter proximal to striatal explant: ABX thalamic + ABX striatal explant, 48 hrs; for Number of axons per 200 μm of thalamic perimeter proximal to striatal explant: physiologically-relevant concentrations (1 nM, 100 nM, 10 uM). The procedure:
Dams were sacrificed on E14.5 by cervical dislocation to preclude confounding effects of CO2 on maternal and fetal physiology. Thalamic, striatal, and hypothalamic explants were isolated from E14.5 embryonic brains and transferred to ice-cold HBSS (Invitrogen). Explants were sliced to ˜500 μm and placed on a thin layer of 50 μl BD Matrigel (Beckton Dickinson) on a 15 mm coverslip. Each coverslip contained a thalamic explant at the center and a striatal and hypothalamic explant on each side, at 1 mm equidistant from the thalamic explant. Explants were incubated in warmed neurobasal complete media containing 1× neurobasal medium (Thermofisher Scientific), 1× GlutaMax (Thermofisher Scientific), and 2% B-27 (Thermofisher Scientific) for 48 hrs at 37° C., and fed with fresh media every 24 hrs. After 48 hrs, media was gently aspirated and replaced with 4% PFA for 1 hr and processed for immunofluorescence staining with 1:500 (3 tubulin III anti-mouse antibody (EMD Millipore MAB1637). Axons were imaged using a Leica DMi8 epifluorescence microscope and quantified using Fiji software^78. Axon numbers were quantified per 200 μm of thalamus at a distance of 200 μm from the thalamus. Length of axons was quantified by averaging length of the 10 longest axons proximal to striatum or hypothalamus. Data for number and length of axons in the explant co-culture system was normalized by subtraction of data from monoculture of thalamic explants from the corresponding experimental group.
Thalamic, striatal, and hypothalamic explants from ABX-treated dams were harvested and cultured as described in the “axon outgrowth assay” section above. For metabolite treatment, BD Matrigel was supplemented with […], 100 nM, or 1 nM of trimethylamine-N-oxide (TMAO), 5-aminovalerate (5-AV), imidazole propionate (IP), 3-indoxyl-sulfate (3-IS), or hippurate (llip)^48,79-81. 5-aminovalerate is a precursor to N,N,N-trimethyl-5-aminovalerate (TMAV), which is not commercially available, and both are implicated in carnitine metabolism^82,83. Metabolite concentrations were determined as physiologically relevant, based on reported concentrations detected in blood and/or cerebrum from the mouse multiple tissue metabolomic database (MMIvIDB), human metabolome database (HMDB) and existing literature^48,79-81. Axons were stained, imaged and analyzed as described in the “axon outgrowth assay” section above.

Counter-ions that a name gives are not always drawn.

With `C[N+](C)(C)[O-]` [TMAO, trimethylamine-N-oxide], the “Length of ABX thalamic axons proximal to hypothalamus” value (“Length of ABX thalamic axons proximal” below) is given as “No statistically significant changes”; the “Number of ABX thalamic axons proximal to hypothalamus” value (shortened to “Number of ABX thalamic axons proximal”) is recorded as “No statistically significant changes”; the “Length of axons proximal to striatal explant” value (“Length of axons proximal” for short) was “modest, but not statistically significant, increases in axon length”; the “Number of axons per 200 μm of thalamic perimeter proximal to striatal explant” value (shortened to “Number of axons per 200 μm … to striatal explant”) is given as “significantly increased axon number to levels seen in fetal brain explants from embryos of SPF dams”.

In the case of `O=S(=O)(O)Oc1c[nH]c2ccccc12` [3-IS, 3-indoxyl sulfate], the “Length of ABX thalamic axons proximal” value was “No statistically significant changes”; the “Number of ABX thalamic axons proximal” value was “No statistically significant changes”; the “Length of axons proximal” value is “modest, but not statistically significant, increases in axon length”; the “Number of axons per 200 μm … to striatal explant” value is listed as “but not 3-IS, significantly increased axon number”.

Regarding `NCCCCC(=O)O` [5-AV, 5-aminovalerate], the “Length of ABX thalamic axons proximal” value is “No statistically significant changes”, the “Number of ABX thalamic axons proximal” value is “No statistically significant changes”, the “Length of axons proximal” value is “significantly increased axon length” and the “Number of axons per 200 μm … to striatal explant” value is given as “significantly increased axon number to levels seen in fetal brain explants from embryos of SPF dams”.

For the compound `O=C(O)CNC(=O)c1ccccc1` [HIP, hippurate], the “Length of ABX thalamic axons proximal” value is recorded as “No statistically significant changes”, the “Number of ABX thalamic axons proximal” value is given as “No statistically significant changes”, the “Length of axons proximal” value is given as “no effect” and the “Number of axons per 200 μm … to striatal explant” value is “significantly increased axon number to levels seen in fetal brain explants from embryos of SPF dams”.

`O=C(O)CCc1cnc[nH]1` [IP, imidazole propionate]: the “Length of ABX thalamic axons proximal” value is given as “No statistically significant changes”, the “Number of ABX thalamic axons proximal” value is listed as “No statistically significant changes”, the “Length of axons proximal” value is on record as “significantly increased axon length” and the “Number of axons per 200 μm … to striatal explant” value is given as “significantly increased axon number to levels seen in fetal brain explants from embryos of SPF dams”.
